Test results published in US9163012B2, “Carbamate and urea inhibitors of 11β-hydroxysteroid dehydrogenase 1” (Vitae Pharmaceuticals, Inc., priority 2009, dated 2015).
Values joined by “and” are separate entries in the source; they are usually repeats but may differ in a detail not shown here. Equal values may be shown once. Read-outs that look alike come from different tables or passages of the source.

Molecular target: 11β-HSD1 (Homo sapiens (Human), UniProt P28845)
Test: Biological Test Example 1: inhibition of a microsomal preparation of 11β-HSD1 (SPA)
Type: biochemical
Conditions: for inhibition at 0.1 µM: read-out: Average % inhibition at 100 nM, Biological Test Example 1
Experimental: All reactions were carried out at rt in 96 well clear flexible PET Microbeta plates (PerkinElmer). […] After a 10 minute pre-incubation, 50 μL of enzyme solution containing microsomes isolated from CHO cells overexpressing human 11-HSD1 (10-20 μg/ml of total protein) was added, and the plates were incubated for 90 minutes at rt. The reaction was stopped by adding 50 μl of the SPA beads suspension containing 10 μM […], 5 mg/ml protein A coated YSi SPA beads (GE Healthcare) and 3.3 μg/ml of anti-cortisol antibody (East Coast Biologics) in Superblock buffer (Bio-Rad). The plates were shaken for 120 minutes at rt, and the SPA signal corresponding to [^3H]cortisol was measured on a Microbeta plate reader.

[1] = Biological Test Example 1, 100 nM compound
[2] = Biological Test Example 1, microsomes from CHO cells overexpressing human 11β-HSD1, read-out: IC50 Range
[3] = Biological Test Example 1, read-out: IC50

Sequence of 11β-HSD1 (P28845 whole entry): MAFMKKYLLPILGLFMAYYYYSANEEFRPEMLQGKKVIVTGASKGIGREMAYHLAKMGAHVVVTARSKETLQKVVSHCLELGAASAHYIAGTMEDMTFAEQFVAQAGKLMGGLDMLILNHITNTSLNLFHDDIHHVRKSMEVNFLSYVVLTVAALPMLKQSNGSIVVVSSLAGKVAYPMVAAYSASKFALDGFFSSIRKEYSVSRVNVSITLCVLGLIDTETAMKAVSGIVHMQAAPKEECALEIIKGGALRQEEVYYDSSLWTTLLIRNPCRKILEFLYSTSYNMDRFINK

| SMILES | Average % inhibition at 100 nM [1] [%] | IC50 [2] [nM] | IC50 [3] | inhibition at 0.1 µM (100 nM compound) [%] | other results |
| --- | --- | --- | --- | --- | --- |
| NC(=O)C12CC3CC(C1)C(OC(=O)N1CCC(c4nccc(C(F)(F)F)n4)C1)C(C3)C2 (single isomer, unassigned) [EXAMPLE 48 Isomer 1, trans-1-carbamoyl-4-adamantyl 3-(4-(trifluoromethyl)pyrimidin-2-yl)pyrrolidine-1-carboxylate] | 94.5 |  |  |  |  |
| NC(=O)[C@]12CC3CC(C1)[C@@H](OC(=O)N1CCCC1c1ncc(Cl)cn1)C(C3)C2 (some centres unmarked) [EXAMPLE 45, 1-carbamoyl-4-adamantyl 2-(5-chloropyrimidin-2-yl)pyrrolidine-1-carboxylate] |  | < 100 | 13.5 nM | 87.5 |  |
| NC(=O)[C@]12CC3CC(C1)[C@@H](OC(=O)N1CC[C@@H](Oc4ccc(C(F)(F)F)cn4)C1)C(C3)C2 [EXAMPLE 5, (R)-(trans-(1-carbamoyl-4-adamantyl)) 3-(5-(trifluoromethyl)pyridin-2-yloxy)pyrrolidine-1-carboxylate] |  | < 100 | 0.99 nM | 94.9 |  |
| Cc1nnc(C2CCCN(C(=O)OC3C4CC5CC3CC(O)(C5)C4)C2)o1 (centres unmarked) [EXAMPLE 25, 1-hydroxy-4-adamantyl 3-(5-methyl-1,3,4-oxadiazol-2-yl)piperidine-1-carboxylate] |  | < 100 | 39.5 nM | 69.9 |  |
| Cc1nc2cc(F)ccc2n1C1CCN(C(=O)OC2C3CC4CC2CC(C(N)=O)(C4)C3)C1 (single isomer, unassigned; isomer 2) [EXAMPLE 74 Isomer 2] |  |  |  |  | Average % inhibition at 100 nM: 83.2%; IC50 (read-out: IC50): 16.6 nM; IC50 (read-out: IC50 Range): < 100 nM |
| Cc1ccc(C2CCN(C(=O)OC3C4CC5CC3CC(C(N)=O)(C5)C4)C2)nn1 (single isomer, unassigned) [EXAMPLE 37 Isomer 2] | 13.3 |  |  |  |  |
| Cc1ncc(C2CCN(C(=O)OC3C4CC5CC3CC(C(N)=O)(C5)C4)C2)cn1 (single isomer, unassigned) [EXAMPLE 36 Isomer 1, 1-carbamoyl-4-adamantyl 3-(2-methylpyrimidin-5-yl)pyrrolidine-1-carboxylate] | 59.1 | < 100 | 83.7 nM |  |  |
| NC(=O)[C@]12CC3CC(C1)[C@@H](OC(=O)N1CC[C@@H](n4c(=O)[nH]c5cc(Cl)cnc54)C1)C(C3)C2 [EXAMPLE 69, (R)-trans-1-carbamoyl-4-adamantyl 3-(6-chloro-2-oxo-1H-imidazo[4,5-b]pyridin-3(2H)-yl)pyrrolidine-1-carboxylate] |  | < 100 | 1.04 nM | 97 |  |
| Cn1ccc(-c2csc([C@H]3CCCN3C(=O)OC3C4CC5CC(C4)CC3C5)n2)cc1=O (stereo partly drawn) [EXAMPLE 53, (R)-2-adamantyl 2-(4-(1-methyl-2-oxo-1,2-dihydropyridin-4-yl)thiazol-2-yl)pyrrolidine-1-carboxylate] |  | < 100 | 0.47 nM | 95.8 |  |
| Cc1cnc(C2CCN(C(=O)OC3C4CC5CC3CC(C(N)=O)(C5)C4)C2)nc1 (single isomer, unassigned) [EXAMPLE 39 Isomer 1, 1-carbamoyl-4-adamantyl 3-(5-methylpyrimidin-2-yl)pyrrolidine-1-carboxylate] | 59.7 | < 100 | 2.99 nM |  |  |
| N#Cc1ccc2[nH]c(=O)n([C@@H]3CCN(C(=O)O[C@H]4C5CC6CC4C[C@](C(N)=O)(C6)C5)C3)c2c1 [EXAMPLE 65, (R)-trans-1-carbamoyl-4-adamantyl 3-(6-cyano-2-oxo-2,3-dihydro-1H-benzo[d]imidazol-1-yl)pyrrolidine-1-carboxylate] |  | < 100 | 33.1 nM | 69 |  |
| Cn1c(=O)n([C@@H]2CCN(C(=O)O[C@H]3C4CC5CC3C[C@](C(N)=O)(C5)C4)C2)c2ncc(Cl)cc21 [EXAMPLE 29, (R) (trans-1-carbamoyl-4-adamantyl) 3-(6-chloro-1-methyl-2-oxo-1H-imidazo[4,5-b]pyridin-3(2H)-yl)pyrrolidine-1-carboxylate] |  | < 100 | 1 nM | 99.2 |  |
| O=C(OC1C2CC3CC(C2)CC1C3)N1CCC(CO)(c2ccccc2)CC1 (centres unmarked) [EXAMPLE 30, 2-adamantyl 4-(hydroxymethyl)-4-phenylpiperidine-1-carboxylate] |  | < 100 | 13.2 nM and 4.44 nM | 87.4 | inhibition at 0.063 µM (Biological Test Example 1, Dose = 63 nM): 80.1% |
| Cc1cc(C2CCN(C(=O)OC3C4CC5CC3CC(C(N)=O)(C5)C4)C2)nn1C (single isomer, unassigned) [EXAMPLE 40 Isomer 1, 1-carbamoyl-4-adamantyl 3-(1,5-dimethyl-1H-pyrazol-3-yl)pyrrolidine-1-carboxylate] | 90.8 | < 100 | 6.88 nM |  |  |
| Cc1ncc(C2CCN(C(=O)OC3C4CC5CC3CC(C(N)=O)(C5)C4)C2)cn1 (single isomer, unassigned) [EXAMPLE 36 Isomer 2, 1-carbamoyl-4-adamantyl 3-(2-methylpyrimidin-5-yl)pyrrolidine-1-carboxylate] | 1.5 | > 100 | > 100 nM |  |  |
| COc1cnc(C2CCN(C(=O)OC3C4CC5CC3CC(C(N)=O)(C5)C4)C2)nc1 (single isomer, unassigned) [EXAMPLE 44 Isomer 2, 1-carbamoyl-4-adamantyl 3-(5-methoxypyrimidin-2-yl)pyrrolidine-1-carboxylate] | 2.4 |  |  |  |  |
| Cc1cnc(C2CCN(C(=O)OC3C4CC5CC3CC(C(N)=O)(C5)C4)C2)nc1 (single isomer, unassigned) [EXAMPLE 39 Isomer 2, 1-carbamoyl-4-adamantyl 3-(5-methylpyrimidin-2-yl)pyrrolidine-1-carboxylate] | 1.8 | > 100 | > 100 nM |  |  |
| O=C(OC1C2CC3CC1CC(O)(C3)C2)N1CCC(c2cc[n+]([O-])cc2)C1 (centres unmarked) [EXAMPLE 22, 4-(1-((1-hydroxy-4-adamantyloxy)carbonyl)pyrrolidin-3-yl)pyridine 1-oxide] |  | > 100 | 100 nM | 3.7 |  |
| O=C(OC1C2CC3CC1CC(O)(C3)C2)N1CCC(c2ncc(Cl)cn2)C1 (single isomer, unassigned) [EXAMPLE 24 Isomer 2, cis-1-hydroxy-4-adamantyl 3-(5-chloropyrimidin-2-yl)pyrrolidine-1-carboxylate] | 34.7 |  |  |  |  |
| O=C(OC1C2CC3CC1CC(C(=O)O)(C3)C2)N1CCC(c2ncc(Cl)cn2)C1 (single isomer, unassigned) [EXAMPLE 46 Isomer 1, trans-4-((3-(5-chloropyrimidin-2-yl)pyrrolidine-1-carbonyl)oxy)adamantane-1-carboxylic acid] | 22.4 | > 100 | > 100 nM |  |  |
| COC(=O)C1(c2ccccc2)CCN(C(=O)OC2C3CC4CC(C3)CC2C4)CC1 (centres unmarked) [EXAMPLE 11, 1-(2-adamantyl) 4-methyl 4-phenylpiperidine-1,4-dicarboxylate] |  |  |  |  | IC50 (IC50 Range): < 100 nM; inhibition at 0.111 µM (read-out: Average % inhibition at 111 nM): 86.3%; IC50 (read-out: IC50): 6.65 nM |
| Cc1noc(C2CCN(C(=O)O[C@H]3C4CC5CC3C[C@](C(N)=O)(C5)C4)C2)n1 (stereo partly drawn) [EXAMPLE 23, trans-1-carbamoyl-4-adamantyl 3-(3-methyl-1,2,4-oxadiazol-5-yl)pyrrolidine-1-carboxylate] |  | < 100 | 17.6 nM | 79.3 |  |
| CC(C)(O)CC1(c2ccccc2)CCN(C(=O)O[C@H]2C3CC4CC2C[C@](C(N)=O)(C4)C3)C1 (stereo partly drawn) [EXAMPLE 49, trans-1-carbamoyl-4-adamantyl 3-(2-hydroxy-2-methylpropyl)-3-phenylpyrrolidine-1-carboxylate] |  | < 100 | 2.07 nM | 91.6 |  |
| Cn1cc(-c2cnc(C3CCN(C(=O)OC4C5CC6CC4CC(C(N)=O)(C6)C5)C3)nc2)ccc1=O (single isomer, unassigned) [EXAMPLE 58 Isomer 1, trans-1-carbamoyl-4-adamantyl 3-(5-(1-methyl-6-oxo-1,6-dihydropyridin-3-yl)pyrimidin-2-yl)pyrrolidine-1-carboxylate] | 69.4 | < 100 | 33.3 nM |  |  |
| O=C(OC1C2CC3CC1CC(C(=O)O)(C3)C2)N1CCC(c2ncc(Cl)cn2)C1 (single isomer, unassigned) [EXAMPLE 46 Isomer 2, cis-4-((3-(5-chloropyrimidin-2-yl)pyrrolidine-1-carbonyl)oxy)adamantane-1-carboxylic acid] | 3.8 | > 100 | > 100 nM |  |  |
| Cc1nc2cccc(Cl)c2n1[C@H]1CCN(C(=O)OC2C3CC4CC2CC(C(N)=O)(C4)C3)C1 (stereo partly drawn) [EXAMPLE 76, (S)-1-carbamoyl-4-adamantyl 3-(7-chloro-2-methyl-1H-benzo[d]imidazol-1-yl)pyrrolidine-1-carboxylate] |  | < 100 | 1.11 nM | 93.6 |  |
| O=C(OC1C2CC3CC(C2)CC1C3)N1CCC[C@@H]1c1nc(-c2cc[n+]([O-])cc2)cs1 (stereo partly drawn) [EXAMPLE 52, (R)-4-(2-(1-((2-adamantyloxy)carbonyl)pyrrolidin-2-yl)thiazol-4-yl)pyridine 1-oxide] |  | < 100 | 1.19 nM | 95.1 |  |
| NC(=O)[C@]12CC3CC(C1)[C@@H](OC(=O)N1CC[C@@H](n4c(=O)[nH]c5cccc(Cl)c54)C1)C(C3)C2 [EXAMPLE 68, (R)-trans-1-carbamoyl-4-adamantyl 3-(7-chloro-2-oxo-2,3-dihydro-1H-benzo[d]imidazol-1-yl)pyrrolidine-1-carboxylate] |  | < 100 | 0.46 nM | 96.9 |  |
